Assay results reported in ChEMBL document CHEMBL1128734, “Pyrrolo[1,2-a]benzimidazole-based quinones and iminoquinones. The role of the 3-substituent on cytotoxicity” (J Med Chem, 1995).

Tested on: not listed separately
Assay: Ratio of the LC50 value to that of PBI-A.
Type: functional

| Structure (SMILES) | Ratio |
| --- | --- |
| CC1=C(N2CC2)C(=O)c2nc3n(c2C1=O)CCC3 | 0.71 |
| CC(=O)OC1CCn2c1nc1c2C(=O)C(C)=C(N2CC2)C1=O (configuration not stated) | 1 |
| CCC(=O)OC1CCn2c1nc1c2C(=O)C(C)=C(N2CC2)C1=O (configuration not stated) | 0.72 |
| CC1=C(N2CC2)C(=O)c2nc3n(c2C1=O)CCC3OC(N)=O (configuration not stated) | 0.84 |

Tested on: Cancer cell lines
Assay: Ratio of the LC50 value to that of imino-APBI-A.
Type: functional

| Structure (SMILES) | Ratio |
| --- | --- |
| CCC(=O)OC1CCn2c1nc1c2C(=O)C(C)=C(NC(C)=O)C1=N (configuration not stated) | 0.26 |
| CC(=O)NC1=C(C)C(=O)c2c(nc3n2CCC3OC(C)=O)C1=N (configuration not stated) | 1 |
| CC(=O)NC1=C(C)C(=O)c2c(nc3n2CCC3O)C1=N (configuration not stated) | 0.09 |
| CC(=O)NC1=C(C)C(=O)c2c(nc3n2CCC3OC(=O)c2ccccc2)C1=N (configuration not stated) | 0.58 |
| COCC(=O)C1CCn2c1nc1c2C(=O)C(C)=C(NC(C)=O)C1=N (configuration not stated) | 0.52 |

Tested on: not listed separately
Assay: COMPARE correlation coefficient of the LC50 response pattern with that of APBI-A.

| Structure (SMILES) | COMPARE correlation coefficient |
| --- | --- |
| COCC(=O)C1CCn2c1nc1c2C(=O)C(C)=C(NC(C)=O)C1=O (configuration not stated) | 0.71 |
| CC(=O)NC1=C(C)C(=O)c2c(nc3n2CCC3)C1=O | 0.7 |
| CC(=O)NC1=C(C)C(=O)c2c(nc3n2CCC3OC(C)=O)C1=O (configuration not stated) | 1 |
